Measurements as given in PMC12291851, “Hydrogen Sulfide (H2S)-Donating Formyl Peptide Receptor 2 (FPR2) Agonists: Design, Synthesis, and Biological Evaluation in Primary Mouse Microglia Culture” (Antioxidants, 2025).

What was measured:
[1] = Cell-free H2S release fluorescence assay with probe 9 (7-azido-4-methylcoumarin); type: physicochemical; settings: overall, 24 h and 48 h, PBS/DMSO 10%
Method: The H2S release fluorescence assay was carried out in a final volume of 100 μL PBS/DMSO 10% in black 96-well plates. Solutions with decreasing concentrations of each tested compound were prepared in PBS/DMSO 10%. Then, 50 μL of each solution was dispensed in triplicate in each well. Starting from a 10 mM stock solution, a 200 μM solution of probe 9 was prepared and stored in the dark until 50 μL was dispensed in each well. Blank wells containing only the probe at 100 μM in 100 μL of PBS/DMSO 10% are also prepared. A H2S calibration curve was obtained by incubating solutions of NaSH with the probe under the same conditions, although a different plate was used to minimize interferences due to the diffusion of rapidly released H2S. After 24 h and 48 h incubation in a humidified incubator at 37 °C, 5% CO2, fluorescence reads are obtained from each well with a plate reader TECAN M1000 Pro (Tecan, Männedorf, Switzerland), at λex = 350 nm and λem = 440 nm. Each experiment was replicated at least three times. The data were processed using Microsoft Excel (Microsoft, Redmond, WA, USA) and GraphPad Prism 7 (GraphPad Software, La Jolla, CA, USA).
Compound 9 is a turn-on fluorescent probe that features an azido moiety which can be reduced to amine by H2S, leading to the formation of the fluorescent derivative 7-amino-4-methylcoumarin 10 (λex = 350 nm and λem = 440 nm, Scheme 2). We included NaHS in the assay as a positive control and 3a as a negative control.

HepG2 cells = assay: Intracellular H2S release with WSP-1 probe; type: cell-based, human; settings: HepG2, tested concentrations 100-300 μM, 60 min
Method: All cell culture reagents were purchased from S.I.A.L. S.r.l. (Rome, Italy). WSP-1 (Washington State Probe-1, 3′-methoxy-3-oxo-3H-spiro[isobenzofuran-1,9′-xanthen]-6′-yl 2-(pyridine-2-yl-disulfanyl benzoate), was obtained from Cayman Chemical (Cayman, Ann Arbor, MI, USA). HepG2, human hepatocellular carcinoma cells, was obtained from American Type Culture Collection (ATCC, Bethesda, MD, USA). Human hepatocellular carcinoma cells (HepG2) were cultured in Minimum Essential Eagle’s Medium. This medium was supplemented with 10% (v/v) Fetal Bovine Serum, 1% (v/v) Glutamine and 1% (v/v) Penicillin-Streptomycin, 1% non-essential amino acids. Cells were cultivated at 37 °C with 5% CO2 at saturated humidity.
These experiments were carried out as already described. HepG2 cells were cultured up to about 90% confluence, and 24 h before the experiment cells were seeded into a 96-well flat bottom black plate (50,000 cells per well). After 24 h, the medium was replaced and cells were incubated at 37 °C for 30 min with a 10 mM solution of the fluorescent WSP-1 probe, which is highly sensitive for H2S detection. After incubation, the supernatant was removed and replaced with different concentrations (100, 200, and 300 µM) of the tested compounds dissolved in HBSS buffer. […] ADT 100 µM was used as a slow H2S-donor reference compound. Data were analyzed by one-way ANOVA for repeated measures, followed by post hoc Bonferroni’s multiple comparison test. Results are expressed as mean ± SEM of 3 independent experiments in triplicate. Statistical significance was accepted at a level of p < 0.05.
Next, we assessed the intracellular H2S release of thioureas and thioamides in HepG2 cells. The compounds were tested at different concentrations (100–300 μM) to evaluate if the release was dose-dependent. We also assayed ADT-OH and TIA as reference H2S-donors, and 3a as a negative control. The results were normalized to the fluorescence signal obtained with 100 μM ADT-OH.

[2] = Cell-free MTT-based H2S release assay; type: physicochemical; settings: 24 h incubation in MEM with 10% DMSO
Method: Solutions at different concentrations of each compound in 100 µL of serum-free MEM/10% DMSO with 0.5 mg/mL 3-(4,5-dimethylthiazol-2yl)-2,5-diphenyltetrazolium bromide (MTT) were incubated for 5 h or 24 h in a humidified incubator at 37 °C in 5% CO2 atmosphere. The experimental design comprised blank wells containing only medium and MTT, and a H2S calibration curve obtained by incubating nine solutions at decreasing concentrations (100 µM to 0.01 µM) of NaHS in medium and MTT. At the end of incubation time, the supernatant was removed, the […] crystals were dissolved in 100 µL DMSO/EtOH (1:1 v/v), and absorbance values were read using a Victor 3 plate reader (PerkinElmer, Shelton, CT, USA) at 570 nm. H2S values are expressed as mean ± S.E.M. of the results of three independent experiments conducted in triplicate, and were plotted using GraphPad Prism 7.
To decipher such results and considering the redox properties of H2S, we questioned if H2S released by our compounds in the culture media could interfere with the conversion of MTT (3-[4,5-dimethylthiazol-2-yl]-2,5-diphenyl tetrazolium bromide) to formazan, which is usually related to cell viability. Thus, we ran cell-free experiments in which MTT was used as the substrate to capture the reductive action of H2S. We found, in agreement with Gerő et al., that some of our thioureas and thioamides reduced MTT to formazan after 24 h incubation in MEM with 10% DMSO.

[3] = tested on: LPS-stimulated rat primary microglial cells and mice organotypic hippocampal cultures; settings: LPS stimulation; ref [19],[20]; cited from earlier work
[4] = tested on: HepG2 hepatocarcinoma cells; assay: MTT cell viability assay, MTT added directly to treated media; type: cell-based, human; settings: HepG2, highest tested doses 200 and 20 µM, vehicle 5% DMSO
Method: The cytotoxicity of our compounds was assessed using the well-established MTT assay. HepG2 hepatocarcinoma cells were cultured in Minimum Essential Medium (MEM) (Euroclone, Pero, Italy), supplemented with 10% fetal bovine serum (Euroclone, Pero, Italy), 100 U/mL penicillin, and 100 µg/mL streptomycin sulfate, at 37 °C in a humidified incubator in 5% CO2 atmosphere. For the MTT assays, these cells were cultured up to about 90% confluence and were then seeded at a concentration of 20,000 cells per well in 96-well plates. After 24 h, the culture medium was replaced with solutions at various concentrations of each compound in MEM/DMSO 5% (v/v). Control wells were incorporated in the experimental design, consisting of vehicle (MEM/DMSO 5%) and pure medium controls.
In the first round of cytotoxicity assays, 0.5 mg/mL MTT was added to each well 2 or 24 h from treatment and left to incubate for 3–5 h. In the second round of cytotoxicity assays, at 2 or 24 h after treatment, treated media were removed, the cells were washed once in PBS, and fresh medium containing 0.5 mg/mL MTT was added to each well and left to incubate for 3–5 h.
Subsequently, the supernatant was removed, and the formazan crystals were dissolved in DMSO/EtOH 1:1 (100 µL/well). Absorbance values were then recorded from each well using a Victor 3 plate reader (PerkinElmer, Shelton, CT, USA) at 570 nm. All presented data were obtained from 3 to 5 experiments performed in triplicate. Cell viability values are expressed as mean ± S.E.M. and were plotted using GraphPad Prism 7.
Next, we assessed H2S release in a biological environment using human hepatocarcinoma HepG2 cells as a model. The intracellular release of H2S was detected with the WSP-1 probe, a turn-on fluorescent probe that selectively and irreversibly reacts with H2S. Considering that a high micromolar concentration of the test compounds is required to obtain a robust fluorescent signal, we first evaluated the compounds’ cytotoxicity after 2 h and 24 h of incubation with the MTT assay in HepG2 cells. […] We accounted for this by adding a vehicle control with 5% DMSO and a control without DMSO to our experimental design.

APP/PS1 mice = tested on: APP/PS1 mice; parameters: method as in PMID 34468933; settings: in vivo administration, ref [21]; cited from earlier work
[5] = tested on: mouse models of autism spectrum disorder; parameters: method as in PMID 35215274; settings: chronic administration; ref [22]; cited from earlier work

Which “H2S release detected with probe 9 in aqueous media” value [1] does the source give for `N#Cc1ccc(C[C@H](NC(=O)Nc2ccc(F)cc2)C(=O)NCC2(c3ccc(F)c(Cl)c3)CC2)cc1` [3a, (S)-N-[[1-(3-chloro-4-fluorophenyl)cyclopropyl]methyl]-3-(4-cyanophenyl)-2-[3-(4-fluorophenyl)ureido]propenamide, reference compound] here?
Its value is “no response”.

And the “intracellular H2S release, WSP-1 fluorescence signal vs vehicle” value (HepG2 cells)?
Its value is “comparable to that of the vehicle”.

What about the “absorbance signal (MTT reduction to formazan) indicative of H2S release” value [2] of the same molecule?
The value was “no signal”.

And the “effect on LPS-induced pro- and anti-inflammatory cytokine levels” value [3]?
Its value is “anti-inflammatory properties”.

What about the “mortality compared to vehicle (MTT)” value [4] of the same molecule?
Its value is > 50%.

And the “neuronal survival, microglial cell density and plaque load” value (APP/PS1 mice)?
Its value is “improvement of neuronal survival and decreased microglial cell density and plaque load”.

What about the “inflammatory markers and social behavior” value [5] of the same molecule?
Its value is “improved inflammatory markers, with a beneficial effect on social behavior”.
